Laboratory results reported in US11203591B2, “Substituted 6-azabenzimidazole compounds” (Gilead Sciences, Inc., priority 2018, dated 2021).

What follows are molecules tested against human HPK1 (MAP4K1) (Homo sapiens (Human), UniProt Q92918) (assay: HPK1 IC50 Assay (TR-FRET peptide phosphorylation)). Settings: recombinant HPK1 kinase domain 0.15 nM, 10 μM ATP, 1 μM STK S1 peptide; geometric mean of multiple experiments.
Chain of human HPK1 (MAP4K1) (Q92918 17-274): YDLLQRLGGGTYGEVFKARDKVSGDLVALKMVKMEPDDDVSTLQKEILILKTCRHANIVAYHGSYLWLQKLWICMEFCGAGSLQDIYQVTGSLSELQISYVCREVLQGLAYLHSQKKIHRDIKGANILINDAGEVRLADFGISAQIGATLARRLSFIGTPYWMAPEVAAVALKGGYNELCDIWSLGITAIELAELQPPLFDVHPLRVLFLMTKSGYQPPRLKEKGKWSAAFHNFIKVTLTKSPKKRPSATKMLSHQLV
Type: biochemical
Summary of the method: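 Readout: TR-FRET (665 nm/620 nm) after EDTA stop, detecting STK S1 peptide (1 μM) phosphorylation by 0.15 nM HPK1 kinase domain, ATP-pre-activated, at 10 μM ATP over 3 h, 25° C, pH 7.0. IC50s from four-parameter variable-slope fits, normalized to staurosporine and DMSO, averaged geometrically.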
Cc1c(C(=O)NC2(C(F)F)CC2)cc(Nc2nc(-c3cnc4c(c3)N(C3CC(C)(N5CCC6C[C@@H]6C5)C3)C(=O)C4(C)C)cc3ncn(C(C)C)c23)c(F)c1F (stereo partly drawn) [Example 232, 5-((6-(1-((1s,3s)-3-(3-azabicyclo[4.1.0]heptan-3-yl)-3-methylcyclobutyl)-3,3-dimethyl-2-oxo-2,3-dihydro-1H-pyrrolo[3,2-b]pyridin-6-yl)-3-isopropyl-3H-imidazo[4,5-c]pyridin-4-yl)amino)-N-(1-(difluoromethyl)cyclopropyl)-3,4-difluoro-2-methylbenzamide] gave an IC50 of 0.09 nM. Cc1c(C(=O)NC2(C(F)F)CC2)cc(Nc2nc(-c3cnc4c(c3)N(C3CC(C)(N5CCC6C[C@@H]6C5)C3)C(=O)C4(C)C)cc3ncn(C(C)C)c23)c(F)c1F (stereo partly drawn) [Example 233, 5-((6-(1-((1s,3s)-3-(3-azabicyclo[4.1.0]heptan-3-yl)-3-methylcyclobutyl)-3,3-dimethyl-2-oxo-2,3-dihydro-1H-pyrrolo[3,2-b]pyridin-6-yl)-3-isopropyl-3H-imidazo[4,5-c]pyridin-4-yl)amino)-N-(1-(difluoromethyl)cyclopropyl)-3,4-difluoro-2-methylbenzamide] gave an IC50 of 0.08 nM. In the case of CC(C)n1cnc2cc(-c3cnc4c(c3)N([C@H]3C[C@@](C)(N5CC6CC6C5)C3)C(=O)C4(C)C)nc(Nc3cc(C(=O)NC4(C(F)F)CC4)c(Cl)c(F)c3F)c21 (stereo partly drawn) [Example 234, 5-((6-(1-((1s,3s)-3-(3-Azabicyclo[3.1.0]hexan-3-yl)-3-methylcyclobutyl)-3,3-dimethyl-2-oxo-2,3-dihydro-1H-pyrrolo[3,2-b]pyridin-6-yl)-3-isopropyl-3H-imidazo[4,5-c]pyridin-4-yl)amino)-2-chloro-N-(1-(difluoromethyl)cyclopropyl)-3,4-difluorobenzamide], the IC50 is reported as 0.3 nM. Work on Cc1cc(F)c(Nc2nc(-c3ccc4c(c3)N([C@H]3C[C@@](C)(N5CCCCC5)C3)C(=O)C4(C)C)cc3ncn(C(C)C)c23)cc1C(=O)NC1(C(F)F)CC1 [Example 235, N-(1-(difluoromethyl)cyclopropyl)-5-((6-(3,3-dimethyl-1-((1s,3s)-3-methyl-3-(piperidin-1-yl)cyclobutyl)-2-oxoindolin-6-yl)-3-isopropyl-3H-imidazo[4,5-c]pyridin-4-yl)amino)-4-fluoro-2-methylbenzamide] yielded an IC50 of 0.1 nM. Molecule Cc1c(C(=O)NC2(C(F)F)CC2)cc(Nc2nc(-c3ccc4c(c3)N([C@H]3C[C@@](C)(N5CCCCC5)C3)C(=O)C4(C)C)cc3ncn(C(C)C)c23)c(F)c1F [Example 236, N-(1-(Difluoromethyl)cyclopropyl)-5-((6-(3,3-dimethyl-1-((1s,3s)-3-methyl-3-(piperidin-1-yl)cyclobutyl)-2-oxoindolin-6-yl)-3-isopropyl-3H-imidazo[4,5-c]pyridin-4-yl)amino)-3,4-difluoro-2-methylbenzamide] has an IC50 of 0.07 nM. For Cc1c(C(=O)NC2(C(F)F)CC2)cc(Nc2nc(-c3ccc4c(c3)N([C@H]3C[C@@](C)(N5CCCCC5)C3)CC4(C)C)cc3ncn(C(C)C)c23)c(F)c1F [Example 237, N-(1-(Difluoromethyl)cyclopropyl)-5-((6-(3,3-dimethyl-1-((1s,3s)-3-methyl-3-(piperidin-1-yl)cyclobutyl)indolin-6-yl)-3-isopropyl-3H-imidazo[4,5-c]pyridin-4-yl)amino)-3,4-difluoro-2-methylbenzamide], the IC50 was 0.3 nM. With CC(C)n1cnc2cc(-c3ccc4c(c3)N([C@H]3C[C@@](C)(N5CCCCC5)C3)C(=O)C4(C)C)nc(Nc3cc(C(=O)NC4(C(F)F)CC4)ccc3F)c21 [Example 238, N-(1-(Difluoromethyl)cyclopropyl)-3-((6-(3,3-dimethyl-1-((1s,3s)-3-methyl-3-(piperidin-1-yl)cyclobutyl)-2-oxoindolin-6-yl)-3-isopropyl-3H-imidazo[4,5-c]pyridin-4-yl)amino)-4-fluorobenzamide] the IC50 was 0.02 nM. CCNC(=O)c1cc(Nc2nc(-c3ccc4c(c3)N([C@H]3C[C@@](C)(N5CCCCC5)C3)C(=O)C4(C)C)cc3ncn(C(C)C)c23)c(F)c(F)c1C [Example 239, 5-((6-(3,3-Dimethyl-1-((1s,3s)-3-methyl-3-(piperidin-1-yl)cyclobutyl)-2-oxoindolin-6-yl)-3-isopropyl-3H-imidazo[4,5-c]pyridin-4-yl)amino)-N-ethyl-3,4-difluoro-2-methylbenzamide] showed an IC50 of 0.04 nM. CCNC(=O)c1ccc(F)c(Nc2nc(-c3ccc4c(c3)N([C@H]3C[C@@](C)(N5CCCCC5)C3)C(=O)C4(C)C)cc3ncn(C(C)C)c23)c1 [Example 240, 3-((6-(3,3-Dimethyl-1-((1s,3s)-3-methyl-3-(piperidin-1-yl)cyclobutyl)-2-oxoindolin-6-yl)-3-isopropyl-3H-imidazo[4,5-c]pyridin-4-yl)amino)-N-ethyl-4-fluorobenzamide] was tested, and the IC50 was 0.09 nM. For CC(C)n1cnc2cc(-c3ccc4c(c3)N([C@H]3C[C@@](C)(N5CCCCC5)C3)C(=O)C4(C)C)nc(Nc3cc(C(=O)NC4(C(F)F)CC4)c(Cl)c(F)c3F)c21 [Example 241, 2-Chloro-N-(1-(difluoromethyl)cyclopropyl)-5-((6-(3,3-dimethyl-1-((1s,3s)-3-methyl-3-(piperidin-1-yl)cyclobutyl)-2-oxoindolin-6-yl)-3-isopropyl-3H-imidazo[4,5-c]pyridin-4-yl)amino)-3,4-difluorobenzamide], the IC50 was 0.1 nM. CC(C)n1cnc2cc(-c3cnc4c(c3)N([C@H]3C[C@@](C)(N5CCCCC5)C3)C(=O)C4(C)C)nc(Nc3cc(C(=O)NC4(C(F)F)CC4)cc(F)c3F)c21 [Example 242, N-(1-(difluoromethyl)cyclopropyl)-3-((6-(3,3-dimethyl-1-((1s,3s)-3-methyl-3-(piperidin-1-yl)cyclobutyl)-2-oxo-2,3-dihydro-1H-pyrrolo[3,2-b]pyridin-6-yl)-3-isopropyl-3H-imidazo[4,5-c]pyridin-4-yl)amino)-4,5-difluorobenzamide] was tested, and the IC50 was 0.07 nM. With CC(C)n1cnc2cc(-c3ccc4c(c3)N([C@H]3C[C@@](C)(N5CCCCC5)C3)C(=O)C4(C)C)nc(Nc3cc(C(=O)NC4(C(F)F)CC4)cc(F)c3F)c21 [Example 243, N-(1-(difluoromethyl)cyclopropyl)-3-((6-(3,3-dimethyl-1-((1s,3s)-3-methyl-3-(piperidin-1-yl)cyclobutyl)-2-oxoindolin-6-yl)-3-isopropyl-3H-imidazo[4,5-c]pyridin-4-yl)amino)-4,5-difluorobenzamide] the IC50 was 0.05 nM. CC(C)n1cnc2cc(-c3ccc4c(c3)N([C@H]3C[C@@H](N5CCCCC5)C3)C(=O)C4(C)C)nc(Nc3cc(C(=O)NC4(C(F)F)CC4)c(Cl)c(F)c3F)c21 [Example 244, 2-chloro-N-(1-(difluoromethyl)cyclopropyl)-5-((6-(3,3-dimethyl-2-oxo-1-((1s,3s)-3-(piperidin-1-yl)cyclobutyl)indolin-6-yl)-3-isopropyl-3H-imidazo[4,5-c]pyridin-4-yl)amino)-3,4-difluorobenzamide] was tested, and the IC50 was 0.05 nM. With CC(C)n1cnc2cc(-c3cnc4c(c3)N([C@H]3C[C@@H](N5CCCCC5)C3)C(=O)C4(C)C)nc(Nc3cc(C(=O)NC4(C(F)F)CC4)c(Cl)c(F)c3F)c21 [Example 245, 2-chloro-N-(1-(difluoromethyl)cyclopropyl)-5-((6-(3,3-dimethyl-2-oxo-1-((1s,3s)-3-(piperidin-1-yl)cyclobutyl)-2,3-dihydro-1H-pyrrolo[3,2-b]pyridin-6-yl)-3-isopropyl-3H-imidazo[4,5-c]pyridin-4-yl)amino)-3,4-difluorobenzamide] the IC50 was 0.1 nM. Molecule Cc1c(C(=O)NC2(C(F)F)CC2)cc(Nc2nc(-c3cnc4c(c3)N([C@H]3C[C@@H](N5CCCCC5)C3)C(=O)C4(C)C)cc3ncn(C(C)C)c23)c(F)c1F [Example 246, N-(1-(difluoromethyl)cyclopropyl)-5-((6-(3,3-dimethyl-2-oxo-1-((1s,3s)-3-(piperidin-1-yl)cyclobutyl)-2,3-dihydro-1H-pyrrolo[3,2-b]pyridin-6-yl)-3-isopropyl-3H-imidazo[4,5-c]pyridin-4-yl)amino)-3,4-difluoro-2-methylbenzamide] has an IC50 of 0.04 nM. CCNC(=O)c1cc(Nc2nc(-c3cnc4c(c3)N([C@H]3C[C@@](C)(N5CCCCCC5)C3)C(=O)C4(C)C)cc3ncn(C(C)C)c23)c(F)c(F)c1Cl [Example 247, 5-((6-(1-((1s,3s)-3-(azepan-1-yl)-3-methylcyclobutyl)-3,3-dimethyl-2-oxo-2,3-dihydro-1H-pyrrolo[3,2-b]pyridin-6-yl)-3-isopropyl-3H-imidazo[4,5-c]pyridin-4-yl)amino)-2-chloro-N-ethyl-3,4-difluorobenzamide] was tested, and the IC50 was 0.05 nM. CC(C)n1cnc2cc(-c3cnc4c(c3)N([C@H]3C[C@@](C)(N5CCCCCC5)C3)C(=O)C4(C)C)nc(Nc3cc(C(=O)NCC(F)F)c(Cl)c(F)c3F)c21 [Example 248, 5-((6-(1-((1s,3s)-3-(azepan-1-yl)-3-methylcyclobutyl)-3,3-dimethyl-2-oxo-2,3-dihydro-1H-pyrrolo[3,2-b]pyridin-6-yl)-3-isopropyl-3H-imidazo[4,5-c]pyridin-4-yl)amino)-2-chloro-N-(2,2-difluoroethyl)-3,4-difluorobenzamide] gave an IC50 of 0.05 nM. With CC(C)n1cnc2cc(-c3cnc4c(c3)N([C@H]3C[C@@](C)(N5CCCCCC5)C3)C(=O)C4(C)C)nc(Nc3cc(C(=O)NC4(CF)CC4)c(Cl)c(F)c3F)c21 [Example 249, 5-((6-(1-((1s,3s)-3-(azepan-1-yl)-3-methylcyclobutyl)-3,3-dimethyl-2-oxo-2,3-dihydro-1H-pyrrolo[3,2-b]pyridin-6-yl)-3-isopropyl-3H-imidazo[4,5-c]pyridin-4-yl)amino)-2-chloro-3,4-difluoro-N-(1-(fluoromethyl)cyclopropyl)benzamide] the IC50 was 0.04 nM.
